From paper PMC10730852 (Communications Biology, 2023)
“And” between values parts separate entries of the source, which are not always exact repeats. Identical values can stand only once. Like-named read-outs stand apart in the source and are kept apart here. Starred links: 1 amine or outer side, 2 acyl side, 3 side chain; linkers in the order of their positions; H or OH if unused. Positions of bridges follow the written chain, without caps; N, C: chain ends. Non-standard residues stand in square brackets, D forms with d. Residues, ends and D or L forms follow the SMILES beside them. *: point of attachment. X1 = NC1=N[C@@H]([C@H](N[*:1])C(=O)[*:2])C[C@H](O)N1; ΔAla(Z-3-ureido) = NC(=O)N/C=C(\N)C(=O)O; β3hOrn = NCCC[C@H](N)CC(=O)*; Dap = NC[C@H](N)C(=O)O

Columns and labels:
Cph001 [1] = experiment: Coupled enzyme assay and Michaelis-Menten kinetics of Cph001; type: biochemical, Streptosporangium roseum; design: initial velocity, Figure 3c iii, Triplicate: unit not given here; settings: for initial velocity, Figure 3c iii, Triplicate / initial velocity, Figure 3c iv, Triplicate: 20 mM CMN IIA; for kcat, phosphate donor varied / Km: in the presence of saturating CMN IIA (20 mM), mean ± SEM, n = 3; for Km: read-out: apparent Km of the phosphate donor; for phosphorylation by Cph001 in couple enzyme assay: 2 mM antibiotic substrate, ATP as phosphate donor, absorbance at 340 nm; for absorbance at 340 nm, Average of triplicate: 2 mM substrate + ATP
Protocol: The phosphorylation reaction was measured by a coupled enzyme assay as following. […] The reactions were mixed well in a final volume of 200 μL in 96-well plates. The Cph001 activity was assayed by determining the oxidation of NADH at 340 nm. The reaction buffer and enzyme concentration of the Cph reaction was followed by previous study. The 340 nm absorbance changes were detected at 30 °C for every 1 min at a time in 15 min on an EPOCH Microplate Reader (BioTek). All reactions were carried out in triplicate.
The initial velocity data were plotted against substrate concentrations and fit the Michaelis-Menten equation. The Km and Vmax values were calculated based on the Michaelis-Menten equation. GraphPad Prism was used for statistical data analysis. All reactions were carried out in triplicate.

E. coli/mphB = experiment: Disk diffusion assay; type: cell-based, E. coli BL21 Rosetta (DE3); settings: Escherichia coli, 24 h, read-out: inhibition zones
Protocol: (§1) The E. coli BL21 Rosetta (DE3) strains containing pET22b, and its carrying cph, cph001, cph002, cph003, aph(3′)-Ia, and mphB plasmids were cultured overnight. The cells, respectively, were then diluted to 0.1 OD600 in molten LB agar with 100 μg/mL ampicillin and 500 μM IPTG for the disk diffusion assay. The cells with ampicillin and IPTG were mixed well with molten LB agar and then poured into 10 cm diameter Petri dishes. The 7 mm disks were placed onto the LB agar and gently loaded with varying quantities of CMN IIA, CMN IIB, VIO, Kan, and Ery, ranging from 0 to 200 μg. The Petri dishes were placed in the incubator at 37 °C and the inhibition zones were observed after 24 hr.

E. coli/cph001 = experiment: Disk diffusion assay; type: cell-based, E. coli BL21 Rosetta (DE3)
Protocol: as §1

[2] = tested on: E. coli/pET-22b (Control); experiment: Disk diffusion assay; type: cell-based, E. coli BL21 Rosetta (DE3); settings: Escherichia coli, 37 °C, 24 hr, read-out: inhibition zones; for zone of inhibition at 12.5 µg/disc: 12.5 μg on disk; for zone of inhibition at 50 µg/disc: 50 μg on disk; for zone of inhibition at 100 µg/disc: 100 μg on disk; for zone of inhibition at 200 µg/disc: 200 μg on disk
Protocol: The E. coli BL21 Rosetta (DE3) strains containing pET22b, and its carrying cph, cph001, cph002, cph003, aph(3′)-Ia, and mphB plasmids were cultured overnight. The cells, respectively, were then diluted to 0.1 OD600 in molten LB agar with 100 μg/mL ampicillin and 500 μM IPTG for the disk diffusion assay. The cells with ampicillin and IPTG were mixed well with molten LB agar and then poured into 10 cm diameter Petri dishes. […] The Petri dishes were placed in the incubator at 37 °C and the inhibition zones were observed after 24 hr.

Cph001 [3] = target: T1, Cph001 (Streptosporangium roseum, UniProt D2B3F1); experiment: Isothermal titration calorimetry (ITC) analysis of Cph001; type: binding
T1 sequence (D2B3F1 1-286): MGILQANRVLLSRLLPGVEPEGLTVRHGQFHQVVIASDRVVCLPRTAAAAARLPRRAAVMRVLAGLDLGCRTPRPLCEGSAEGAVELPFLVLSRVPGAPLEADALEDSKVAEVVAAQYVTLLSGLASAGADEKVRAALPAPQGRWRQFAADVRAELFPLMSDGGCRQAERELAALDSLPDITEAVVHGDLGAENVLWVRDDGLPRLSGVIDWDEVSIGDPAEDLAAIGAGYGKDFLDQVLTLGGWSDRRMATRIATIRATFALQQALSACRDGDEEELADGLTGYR
Source text: The integrated heat areas constitute a differential binding curve that was fitted with a standard single-site binding model by Origin 7.

E. coli/cph = experiment: Disk diffusion assay; type: cell-based, E. coli BL21 Rosetta (DE3); settings: Escherichia coli, 24 h, read-out: inhibition zones
Protocol: as §1

[4] = design: method as in earlier work; settings: ref Antimicrob. Agents Chemother. 60, 4786, 2016 and Antimicrob. Agents Chemother. 62, e01724, 2018, cited from earlier work
[5] = Escherichia coli, 24 h, read-out: inhibition zones

Nc1ncnc2c1ncn2C1OC(COP(=O)(O)OP(=O)(O)OP(=O)(O)O)C(O)C1O (centres unmarked) [ATP]
initial velocity, Figure 3c iii, Triplicate (Cph001 [1]; 0.01 mM ATP): 0.0001332 and 0.000121 and 0.0001197 | initial velocity, Figure 3c iii, Triplicate (Cph001 [1]; 0.02 mM ATP): 0.0001161 and 0.0001344 and 0.0001332 | initial velocity, Figure 3c iii, Triplicate (Cph001 [1]; 0.05 mM ATP): 0.0002407 and 0.0001564 and 0.0001833 | initial velocity, Figure 3c iii, Triplicate (Cph001 [1]; 0.1 mM ATP): 0.0002407 and 0.0002053 and 0.0001552 | initial velocity, Figure 3c iii, Triplicate (Cph001 [1]; 0.2 mM ATP): 0.0003336 and 0.0003519 and 0.0003385 | initial velocity, Figure 3c iii, Triplicate (Cph001 [1]; 0.4 mM ATP): 0.0003201 and 0.0003715 and 0.0003678 | initial velocity, Figure 3c iii, Triplicate (Cph001 [1]; 0.6 mM ATP): 0.0004387 and 0.0003983 | initial velocity, Figure 3c iii, Triplicate (Cph001 [1]; 0.8 mM ATP): 0.0003825 and 0.0004668 and 0.0004985 | kcat, phosphate donor varied (Cph001 [1]): 0.00967 ± 0.0005 s⁻¹ | Km (Cph001 [1]): 70 ± 20 µM

CC[C@H]1OC(=O)[C@H](C)[C@@H](O[C@H]2C[C@@](C)(OC)[C@@H](O)[C@H](C)O2)[C@H](C)[C@@H](O[C@@H]2O[C@H](C)C[C@H](N(C)C)[C@H]2O)[C@](C)(O)C[C@@H](C)C(=O)[C@H](C)[C@@H](O)[C@]1(C)O [Ery, erythromycin]
zone of inhibition at 12.5 µg/disc (E. coli/mphB): 15.5 mm | zone of inhibition at 50 µg/disc (E. coli/mphB): 21.5 mm | zone of inhibition at 100 µg/disc (E. coli/mphB): 23 mm | zone of inhibition at 200 µg/disc (E. coli/mphB): 24 mm | zone of inhibition at 12.5 µg/disc (E. coli/cph001; [5]): 23 mm | zone of inhibition at 200 µg/disc (E. coli/cph001; [5]): 32 mm | zone of inhibition at 12.5 µg/disc [2]: 24 mm | zone of inhibition at 50 µg/disc [2]: 27 mm | zone of inhibition at 100 µg/disc [2]: 29 mm | zone of inhibition at 200 µg/disc [2]: 31 mm | phosphorylation by Cph001 in couple enzyme assay (Cph001 [1]): only capable of phosphorylating VIO

Nc1nc2c(ncn2[C@@H]2O[C@H](COP(=O)(O)OP(=O)(O)OP(=O)(O)O)[C@@H](O)[C@H]2O)c(=O)[nH]1 [GTP]
initial velocity, Figure 3c iv, Triplicate (Cph001 [1]; 0.02 mM GTP): 9.164e-5 and 7.331e-5 and 0.0001283 | initial velocity, Figure 3c iv, Triplicate (Cph001 [1]; 0.05 mM GTP): 9.164e-5 and 0.0001521 and 0.0001466 | initial velocity, Figure 3c iv, Triplicate (Cph001 [1]; 0.1 mM GTP): 0.0002053 and 0.0001576 and 0.0002218 | initial velocity, Figure 3c iv, Triplicate (Cph001 [1]; 0.2 mM GTP): 0.0003519 and 0.0003501 and 0.0003886 | initial velocity, Figure 3c iv, Triplicate (Cph001 [1]; 0.4 mM GTP): 0.0005242 and 0.0006232 and 0.0004326 | initial velocity, Figure 3c iv, Triplicate (Cph001 [1]; 0.6 mM GTP): 0.0006012 and 0.0005554 and 0.000493 | initial velocity, Figure 3c iv, Triplicate (Cph001 [1]; 1 mM GTP): 0.0006525 and 0.0006232 and 0.000592 | initial velocity, Figure 3c iv, Triplicate (Cph001 [1]; 2 mM GTP): 0.0006287 and 0.0006397 and 0.0005095 | kcat, phosphate donor varied (Cph001 [1]): 0.0152 ± 0.00067 s⁻¹ | Km (Cph001 [1]): 180 ± 30 µM

NC[C@H]1O[C@H](O[C@H]2[C@H](O)[C@@H](O[C@H]3O[C@H](CO)[C@@H](O)[C@H](N)[C@H]3O)[C@H](N)C[C@@H]2N)[C@H](O)[C@@H](O)[C@@H]1O [Kan, kanamycin]
phosphorylation by Cph001 in couple enzyme assay (Cph001 [1]): only capable of phosphorylating VIO

NCCC[C@H](N)CC(=O)N[C@H]1CNC(=O)[C@H]([C@H]2C[C@H](O)NC(N)=N2)NC(=O)/C(=C/NC(N)=O)NC(=O)[C@H](CO)NC(=O)[C@H](CO)NC1=O [VIO, viomycin] (β3hOrn-[Dap]SS[ΔAla(Z-3-ureido)][X1]; lactam 1-C)
Kd (Cph001 [3]): 4.18 ± 0.68 µM | resistance in disk diffusion assay (E. coli/cph001; E. coli harboring cph001): resistant | zone of inhibition at 12.5 µg/disc (E. coli/cph001; [5]): 8 mm | zone of inhibition at 50 µg/disc (E. coli/cph001; [5]): 12 mm | zone of inhibition at 100 µg/disc (E. coli/cph001; [5]): 15 mm | zone of inhibition at 200 µg/disc (E. coli/cph001; [5]): 17.5 mm | zone of inhibition at 12.5 µg/disc (E. coli/cph): 8.5 mm | zone of inhibition at 50 µg/disc (E. coli/cph): 10 mm | zone of inhibition at 100 µg/disc (E. coli/cph): 11 mm | zone of inhibition at 200 µg/disc (E. coli/cph): 12 mm | zone of inhibition at 12.5 µg/disc [2]: 23.5 mm | zone of inhibition at 50 µg/disc [2]: 27 mm | zone of inhibition at 100 µg/disc [2]: 29 mm | zone of inhibition at 200 µg/disc [2]: 30 mm | phosphorylation by Cph001 in couple enzyme assay (Cph001 [1]): only capable of phosphorylating VIO | absorbance at 340 nm, Average of triplicate (Cph001 [1]; time 00:00:00): 1.495 | absorbance at 340 nm, Average of triplicate (Cph001 [1]; time 00:01:00): 1.515 | absorbance at 340 nm, Average of triplicate (Cph001 [1]; time 00:02:00): 1.474 | absorbance at 340 nm, Average of triplicate (Cph001 [1]; time 00:03:00): 1.3778 | absorbance at 340 nm, Average of triplicate (Cph001 [1]; time 00:04:00): 1.2968 | absorbance at 340 nm, Average of triplicate (Cph001 [1]; time 00:05:00): 1.217 | absorbance at 340 nm, Average of triplicate (Cph001 [1]; time 00:06:00): 1.012 | absorbance at 340 nm, Average of triplicate (Cph001 [1]; time 00:07:00): 0.8175 | absorbance at 340 nm, Average of triplicate (Cph001 [1]; time 00:08:00): 0.6031 | absorbance at 340 nm, Average of triplicate (Cph001 [1]; time 00:09:00): 0.4177 | absorbance at 340 nm, Average of triplicate (Cph001 [1]; time 00:10:00): 0.2691 | absorbance at 340 nm, Average of triplicate (Cph001 [1]; time 00:11:00): 0.254 | absorbance at 340 nm, Average of triplicate (Cph001 [1]; time 00:12:00): 0.2155 | absorbance at 340 nm, Average of triplicate (Cph001 [1]; time 00:13:00): 0.1675 | absorbance at 340 nm, Average of triplicate (Cph001 [1]; time 00:14:00): 0.1401 | absorbance at 340 nm, Average of triplicate (Cph001 [1]; time 00:15:00): 0.1225

capreomycin
MIC ([4]; approximate molar equivalent): 1.5 to 4.5 µM | MIC [4]: 1 to 3 µg/mL
